In this assay the target is T1, AnRut (recombinant rutinosidase from Aspergillus niger) (Aspergillus niger, UniProt A0A6B9UJ04).
T1 construct: vector pPICZalphaA-RUT, secreted as fusion product by Pichia pastoris KM71H; crude culture medium, ca 66 kDa glycosylated (45 kDa deglycosylated), dimer
T1 sequence (A0A6B9UJ04 20-386): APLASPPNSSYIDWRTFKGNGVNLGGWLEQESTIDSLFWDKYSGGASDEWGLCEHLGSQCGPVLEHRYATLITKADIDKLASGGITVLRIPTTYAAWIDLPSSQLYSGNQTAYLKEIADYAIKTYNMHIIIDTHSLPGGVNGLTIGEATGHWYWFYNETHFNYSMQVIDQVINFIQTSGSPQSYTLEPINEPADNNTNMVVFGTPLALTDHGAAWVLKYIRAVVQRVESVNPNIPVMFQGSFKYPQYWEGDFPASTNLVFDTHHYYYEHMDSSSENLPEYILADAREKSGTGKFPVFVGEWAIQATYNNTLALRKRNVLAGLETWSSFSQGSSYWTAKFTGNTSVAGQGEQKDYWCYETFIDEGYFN
Description: transglycosylation (glycosyl donor), TLC / product isolation. It counts as biochemical. The conditions noted are these: pH 3.5, 36 °C; crude culture medium with secreted recombinant enzyme; suspended substrate; acceptors 3-9.

From PMC7460883, “Dual Substrate Specificity of the Rutinosidase from Aspergillus niger and the Role of Its Substrate Tunnel” (International Journal of Molecular Sciences, 2020) come the findings set out here.

With `C[C@@H]1O[C@@H](OC[C@H]2O[C@@H](Oc3c(-c4ccc(O)c(O)c4)oc4cc(O)cc(O)c4c3=O)[C@H](O)[C@@H](O)[C@@H]2O)[C@H](O)[C@H](O)[C@H]1O` [compound 1, rutin], the “transglycosylation (glycosyl donor), TLC / product isolation” value is “both AnRut activities, i.e., rutinosidase (with rutin donor) and glucosidase (with isoquercitrin donor)”.
As for `O=c1c(O[C@@H]2O[C@H](CO)[C@@H](O)[C@H](O)[C@H]2O)c(-c2ccc(O)c(O)c2)oc2cc(O)cc(O)c12` [compound 2, isoquercitrin], the “transglycosylation (glycosyl donor), TLC / product isolation” value is “both AnRut activities, i.e., rutinosidase (with rutin donor) and glucosidase (with isoquercitrin donor)”.
